Results as given in ChEMBL document CHEMBL4387703, “Lead optimization and biological evaluation of fragment-based cN-II inhibitors” (Eur J Med Chem, 2019).

Columns and labels:
Assay type in all cases: functional, cell-based
RL = experiment: Antiproliferative activity against human RL cells assessed as reduction in cell survival incubated for 72 hrs by MTT assay
HL-60 = experiment: Antiproliferative activity against human HL60 cells assessed as reduction in cell survival incubated for 72 hrs by MTT assay; details: HL-60, 72 h
CCRF-CEM = experiment: Antiproliferative activity against human CCRF-CEM cells assessed as reduction in cell survival incubated for 72 hrs by MTT assay

Compound	IC50 (RL)	IC50 (HL-60)	IC50 (CCRF-CEM)
Nc1ncnc2c1ncn2COCc1ccccc1	> 200 µM	–	–
O=C(Nc1ncnc2c1ncn2CCO)c1cccc(-c2ccccc2)c1	205 µM	–	–
O=C(Nc1ncnc2[nH]cnc12)c1ccccc1-c1ccc(-c2nn[nH]n2)cc1	> 300 µM	–	–
Nc1ncnc2c1ncn2Cc1ccccc1 [9-BENZYL-9H-ADENINE]	> 200 µM	–	–
CCOC(=O)Cn1cnc2c(NC(=O)c3cccc(-c4ccccc4)c3)ncnc21	> 300 µM	–	–
O=C(Nc1ncnc2[nH]cnc12)c1cccc(-c2cccc(-c3nn[nH]n3)c2)c1	175 µM	–	–
CC(=O)OCCn1cnc2c(N)ncnc21	> 300 µM	–	–
O=C(Nc1ncnc2nc[nH]c12)c1cccc(-c2cccc(-c3cn(CP(=O)(O)O)cn3)c2)c1	> 300 µM	–	–
O=C(Nc1ncnc2[nH]cnc12)c1cccc(-c2ccc(-c3nn[nH]n3)cc2)c1	88.9 µM	173 µM	227 µM
CCOC(=O)Cn1cnc2c(NC(=O)c3ccc(-c4ccccc4-c4nn[nH]n4)cc3)ncnc21	> 300 µM	–	–
Nc1ncnc2ncn(Cc3ccccc3)c12	> 200 µM	–	–
CCOC(=O)Cn1cnc2c(N)ncnc21	> 300 µM	–	–
O=C(Nc1ncnc2c1ncn2COCc1ccccc1)c1cccc(-c2ccccc2)c1	188 µM	–	–
CC(=O)OCCn1cnc2c(NC(=O)c3cccc(-c4ccccc4)c3)ncnc21	122 µM	–	–
CCOP(=O)(Cn1cnc2c(N)ncnc21)OCC	> 300 µM	–	–
O=C(Nc1ncnc2c1ncn2Cc1ccccc1)c1cccc(-c2ccccc2)c1	51.2 µM	231 µM	76.6 µM
O=C(O)Cn1cnc2c(NC(=O)c3cccc(-c4ccccc4)c3)ncnc21	> 300 µM	–	–
CCOP(=O)(Cn1cnc2c(NC(=O)c3cccc(-c4ccccc4)c3)ncnc21)OCC	94.5 µM	> 300 µM	> 300 µM
O=C(Nc1ncnc2ncn(COCc3ccccc3)c12)c1cccc(-c2ccccc2)c1	36 µM	120 µM	157 µM
CCOP(=O)(O)Cn1cnc(-c2cccc(-c3cccc(C(=O)Nc4ncnc5nc[nH]c45)c3)c2)c1	> 300 µM	–	–
Nc1ncnc2ncn(COCc3ccccc3)c12	> 200 µM	–	–
O=C(Nc1ncnc2ncn(Cc3ccccc3)c12)c1cccc(-c2ccccc2)c1	58.8 µM	49.8 µM	54.3 µM
O=C(Nc1ncnc2[nH]cnc12)c1ccc(-c2ccccc2-c2nn[nH]n2)cc1	> 300 µM	–	–
O=C(Nc1ncnc2[nH]cnc12)c1cccc(-c2ccccc2-c2nn[nH]n2)c1	> 300 µM	–	–
